Assay results: ChEMBL document CHEMBL2424626, “Synthesis and antiproliferative activities of quebecol and its analogs” (Bioorg Med Chem Lett, 2013)

Assays:
[1] = tested on: MCF7; assay: Antiproliferative activity against human MCF7 cells assessed as cell viability at 75 uM after 72 hrs relative to control; assay type: functional; details: MCF7, 72 h
[2] = tested on: MCF7; assay: Antiproliferative activity against human MCF7 cells after 72 hrs; assay type: functional, cell-based
[3] = tested on: HeLa; assay: Antiproliferative activity against human HeLa cells assessed as cell viability at 75 uM after 72 hrs relative to control; assay type: functional
[4] = tested on: SK-OV-3; assay: Antiproliferative activity against human SKOV3 cells assessed as cell viability at 75 uM after 72 hrs relative to control; assay type: functional; details: SK-OV-3, 72 h
[5] = tested on: HT-29; assay: Antiproliferative activity against human HT-29 cells assessed as cell viability at 75 uM after 72 hrs relative to control; assay type: functional; details: HT-29, 72 h

CCOC(=O)C(c1ccc(OC)cc1)C(c1ccc(O)cc1)c1ccc(O)cc1 (stereo not drawn)
inhibition at 75 µM [1]: 75%

CCOC(=O)C(c1ccc(C)cc1)C(c1ccc(O)cc1)c1ccc(O)cc1 (stereo not drawn)
IC50 ([2]; Homo sapiens, MCF7, 72 h): 78.7 µM | inhibition at 75 µM [1]: 80% | inhibition at 75 µM [3]: 80% | inhibition at 75 µM [4]: 80% | inhibition at 75 µM [5]: 80%

OCC(c1ccccc1)C(c1ccc(O)cc1)c1ccc(O)cc1 (stereo not drawn)
inhibition at 75 µM [1]: 80% | inhibition at 75 µM [3]: 80% | inhibition at 75 µM [4]: 80% | inhibition at 75 µM [5]: 80%

CCOC(=O)C(c1ccccc1)C(c1ccc(O)cc1)c1ccc(O)cc1 (stereo not drawn)
IC50 ([2]; Homo sapiens, MCF7, 72 h): 80.6 µM | inhibition at 75 µM [1]: 80% | inhibition at 75 µM [3]: 80% | inhibition at 75 µM [4]: 80% | inhibition at 75 µM [5]: 80%

CCOC(=O)C(c1ccc(O)c(OC)c1)C(c1ccc(O)cc1)c1ccc(O)cc1 (stereo not drawn)
inhibition at 75 µM [1]: 75%

CCOC(=O)C(c1cccc(OC)c1)C(c1ccc(O)cc1)c1ccc(O)cc1 (stereo not drawn)
IC50 ([2]; Homo sapiens, MCF7, 72 h): 85.1 µM | inhibition at 75 µM [1]: 80% | inhibition at 75 µM [3]: 80% | inhibition at 75 µM [4]: 80% | inhibition at 75 µM [5]: 80%

COc1cc(C(CO)C(c2ccc(O)c(OC)c2)c2ccc(O)c(OC)c2)ccc1O (stereo in doubt; 9a)
IC50 ([2]; mcf7): 103 µM

COc1cc(C(CO)C(c2ccc(O)c(OC)c2)c2ccc(O)c(OC)c2)ccc1O (stereo in doubt)
IC50 ([2]; Homo sapiens, MCF7, 72 h): 104 µM
